According to publication PMC8746632, “Design and Synthesis of New Thiophene/Thieno[2,3-d]pyrimidines along with Their Cytotoxic Biological Evaluation as Tyrosine Kinase Inhibitors in Addition to Their Apoptotic and Autophagic Induction” (Molecules, 2021):

Molecular target: T1, FLT3 kinase (Fms-like tyrosine kinase 3) (Homo sapiens, UniProt P36888)
T1 sequence (P36888 27-993): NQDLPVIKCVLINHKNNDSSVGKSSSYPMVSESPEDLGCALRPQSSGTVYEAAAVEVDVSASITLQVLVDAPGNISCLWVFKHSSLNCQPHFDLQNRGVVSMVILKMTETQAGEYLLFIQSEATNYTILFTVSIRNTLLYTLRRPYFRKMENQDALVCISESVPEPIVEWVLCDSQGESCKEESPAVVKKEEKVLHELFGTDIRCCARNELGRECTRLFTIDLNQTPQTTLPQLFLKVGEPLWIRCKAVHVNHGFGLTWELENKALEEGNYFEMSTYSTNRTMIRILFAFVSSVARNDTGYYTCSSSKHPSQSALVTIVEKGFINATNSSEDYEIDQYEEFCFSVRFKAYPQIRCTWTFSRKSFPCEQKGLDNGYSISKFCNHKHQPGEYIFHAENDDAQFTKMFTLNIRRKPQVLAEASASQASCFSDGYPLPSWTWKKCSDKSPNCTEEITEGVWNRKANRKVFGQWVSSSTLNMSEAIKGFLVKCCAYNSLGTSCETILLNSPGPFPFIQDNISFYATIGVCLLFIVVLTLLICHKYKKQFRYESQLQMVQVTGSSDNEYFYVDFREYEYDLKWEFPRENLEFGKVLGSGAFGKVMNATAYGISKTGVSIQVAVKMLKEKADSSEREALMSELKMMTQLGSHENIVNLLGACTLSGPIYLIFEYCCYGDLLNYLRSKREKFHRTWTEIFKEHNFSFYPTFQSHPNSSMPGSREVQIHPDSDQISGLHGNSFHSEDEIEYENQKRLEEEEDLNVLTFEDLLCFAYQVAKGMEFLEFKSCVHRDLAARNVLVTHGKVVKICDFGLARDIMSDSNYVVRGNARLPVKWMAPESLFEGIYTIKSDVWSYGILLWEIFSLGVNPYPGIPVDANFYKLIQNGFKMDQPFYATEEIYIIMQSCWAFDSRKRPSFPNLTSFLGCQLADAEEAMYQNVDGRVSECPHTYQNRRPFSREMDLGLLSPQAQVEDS
Experiment: FLT3 Kinase Assay Kit, ADP production, luminescence, dose response
Type: biochemical

IC50	Structure (SMILES)
40 ± 5.5 µM	CCOC(=O)c1c(NC(=O)CCl)sc2c1CCCC2 [compound 10, 10]
39.6 ± 4.6 µM	CC(C)(C)c1cc(Nc2ncnc3sc4c(c23)CCCC4)on1 [9b, N-(3-tert-butylisoxazol-5-yl)-5,6,7,8-tetrahydrobenzo[4,5]thieno[2,3-d]pyrimidin-4-amine]
40.5 ± 6.3 µM	CC1=CC(=O)N(Nc2ncnc3sc4c(c23)CCCC4)C1=O [compound 8, 3-Methyl-1-(5,6,7,8-tetrahydrobenzo[4,5]thieno[2,3-d]pyrimidin-4-ylamino)-1H-pyrrole-2,5-dione]
32.4 ± 5.5 µM	O=C(CCl)NNc1ncnc2sc3c(c12)CCCC3 [compound 5, 2-Chloro-N′-(5,6,7,8,tetrahydrobenzo[4,5]thieno[2,3-d]pyrimidin-4-yl)acetohydrazide]
